Source: ChEMBL document CHEMBL4387730, “Discovery of a new autophagy inducer for A549 lung cancer cells” (Bioorg Med Chem, 2019)
The source made the active and inactive calls. The calls are words filed in the database; no cut-off is given here.

Assays:
A549 [1] = experiment: Cytotoxicity against human A549 cells assessed as reduction in viability at 0.1 to 20 uM after 24 hrs by SRB assay; type: functional, cell-based
A549 [2] = experiment: Cytotoxicity against human A549 cells assessed as reduction in viability at 0.1 to 20 uM after 48 hrs by SRB assay; type: functional, cell-based
A549 [3] = experiment: Cytotoxicity against human A549 cells assessed as reduction in viability after 48 hrs by SRB assay; type: functional, cell-based; details: A549, 48 h
A549 [4] = experiment: Induction of morphological changes in human A549 cells assessed as apoptotic body formation at 0.1 to 20 uM after 3 to 24 hrs by acridine orange staining based inverted phase contrast microscopic method; type: functional, cell-based
A549 [5] = experiment: Induction of necrosis in human A549 cells assessed as increase in LDH activity at 0.1 to 5 uM after 24 hrs by absorption spectrophotometric method; type: cell-based; details: a549, 24 h
A549 [6] = experiment: Induction of necrosis in human A549 cells assessed as increase in LDH activity at 10 uM after 24 hrs by absorption spectrophotometric method; type: cell-based; details: a549, 24 h
A549 [7] = experiment: Induction of apoptosis in human A549 cells assessed as increase in Cleaved-PARP expression at 1 to 10 uM after 24 hrs by Western blot analysis; type: functional, cell-based
A549 [8] = experiment: Induction of autophagy in human A549 cells assessed as accumulation of acidic vesicles at 0.05 to 20 uM after 24 hrs by acridine orange staining based fluorescence microscopic method; type: functional, cell-based
A549 [9] = experiment: Induction of autophagy in human A549 cells assessed as increase in […] expression at 1 to 10 uM after 24 hrs by Western blot analysis; type: functional, cell-based
A549 [10] = experiment: Inhibition of autophagy flux in human A549 assessed as increase in p62 expression at 1 to 10 uM after 24 hrs by Western blot analysis; type: functional, cell-based
A549 [11] = experiment: Induction of autophagy in human A549 cells assessed decrease in p62 expression at 1 to 10 uM after 24 hrs by Western blot analysis; type: functional, cell-based
U-87 MG = experiment: Induction of autophagy in human U87 cells transfected with GFP-fused LC3-II assessed as punctiform pattern of LC3-II at 1 to 10 uM after 24 hrs by laser scanning confocal microscopic method; type: functional, cell-based; details: U-87MG ATCC
A549 [12] = experiment: Induction of autophagic flux in human A549 cells assessed as increase in LC3-II protein level at 10 uM after 24 hrs in presence of V-ATPase inhibitor bafilomycin-A1 by Western blot analysis; type: functional, cell-based
mTORC1 (Homo sapiens) = mTORC1 (Homo sapiens) (UniProt P42345+Q8N122+Q9BVC4); experiment: Inhibition of mTORC1 in human A549 cells assessed as reduction in p70S6K phosphorylation at 10 uM after 3 to 24 hrs by Western blot analysis; type: cell-based
Chain of mTORC1 (Homo sapiens) (Q8N122 whole entry, looked up, other chains not shown): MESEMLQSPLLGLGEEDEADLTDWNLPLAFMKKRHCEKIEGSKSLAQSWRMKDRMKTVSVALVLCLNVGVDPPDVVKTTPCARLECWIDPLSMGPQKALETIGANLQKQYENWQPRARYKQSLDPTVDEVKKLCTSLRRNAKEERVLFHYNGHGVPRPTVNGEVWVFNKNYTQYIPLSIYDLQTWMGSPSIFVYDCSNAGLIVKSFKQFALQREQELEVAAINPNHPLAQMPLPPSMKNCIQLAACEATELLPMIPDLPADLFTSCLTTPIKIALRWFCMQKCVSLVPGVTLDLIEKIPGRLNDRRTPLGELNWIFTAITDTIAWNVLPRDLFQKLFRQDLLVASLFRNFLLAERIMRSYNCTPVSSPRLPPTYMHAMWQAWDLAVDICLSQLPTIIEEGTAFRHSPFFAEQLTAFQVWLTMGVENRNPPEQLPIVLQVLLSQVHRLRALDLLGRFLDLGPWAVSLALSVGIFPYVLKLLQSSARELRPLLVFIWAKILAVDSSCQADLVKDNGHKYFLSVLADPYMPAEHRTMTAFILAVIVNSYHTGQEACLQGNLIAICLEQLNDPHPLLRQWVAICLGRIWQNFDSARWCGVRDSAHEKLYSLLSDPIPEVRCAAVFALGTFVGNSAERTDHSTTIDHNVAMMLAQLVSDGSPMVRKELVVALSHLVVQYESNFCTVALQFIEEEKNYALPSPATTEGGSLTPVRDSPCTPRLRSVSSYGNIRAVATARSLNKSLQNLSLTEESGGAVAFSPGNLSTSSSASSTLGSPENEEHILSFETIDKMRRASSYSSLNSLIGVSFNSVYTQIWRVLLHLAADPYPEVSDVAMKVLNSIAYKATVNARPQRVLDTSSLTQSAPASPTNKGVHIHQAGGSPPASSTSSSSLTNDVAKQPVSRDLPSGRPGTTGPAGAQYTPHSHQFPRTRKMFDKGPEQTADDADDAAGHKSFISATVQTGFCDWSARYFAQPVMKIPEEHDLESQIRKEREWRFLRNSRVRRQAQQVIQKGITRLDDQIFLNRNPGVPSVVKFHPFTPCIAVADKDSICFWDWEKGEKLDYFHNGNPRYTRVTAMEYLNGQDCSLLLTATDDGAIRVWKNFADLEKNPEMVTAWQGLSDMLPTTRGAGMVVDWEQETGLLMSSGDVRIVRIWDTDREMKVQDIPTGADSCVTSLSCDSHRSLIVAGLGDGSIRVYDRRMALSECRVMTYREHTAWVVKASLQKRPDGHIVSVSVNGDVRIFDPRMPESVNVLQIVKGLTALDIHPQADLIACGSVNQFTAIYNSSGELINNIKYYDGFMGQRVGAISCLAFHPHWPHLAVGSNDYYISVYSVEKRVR
Chain of mTORC1 (Homo sapiens) (Q9BVC4 whole entry, looked up, other chains not shown): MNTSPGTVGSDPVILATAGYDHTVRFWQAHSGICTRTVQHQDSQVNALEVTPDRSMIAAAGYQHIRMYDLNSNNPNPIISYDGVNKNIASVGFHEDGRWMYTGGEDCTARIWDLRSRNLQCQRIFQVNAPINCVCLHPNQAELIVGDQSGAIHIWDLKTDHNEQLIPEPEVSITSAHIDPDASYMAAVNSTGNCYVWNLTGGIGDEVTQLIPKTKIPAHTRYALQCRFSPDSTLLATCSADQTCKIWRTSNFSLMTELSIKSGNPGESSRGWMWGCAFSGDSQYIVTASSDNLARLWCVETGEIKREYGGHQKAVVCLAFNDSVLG

| Structure (SMILES) | Activity (A549 [1]) | Activity (A549 [2]) | further results |
| --- | --- | --- | --- |
| CCN(CC)C(=O)c1ccc(-c2oc3ccccc3c(=O)c2O)cc1 | inactive | inactive | – |
| O=c1[nH]cc(F)c(=O)[nH]1 [FLUOROURACIL] | Active | Active | IC50 (A549 [3]): 7.1 µM |
| O=C(O)c1ccc(N2C(=O)c3cccc4cccc(c34)C2=O)cc1 | inactive | inactive | – |
| O=Cc1ccc2c(c1)c1ccccc1n2CCCN1CCNCC1 | inactive | inactive | – |
| O=C(O)c1ccc2c(c1)S(=O)(=O)c1ccccc1N2CCCCl | inactive | inactive | – |
| CCN(CC)c1ccc2ccc(=O)oc2c1 | inactive | inactive | – |
| CCN(CC)c1ccc2cc(-c3ccc(C)cc3)c(=O)oc2c1 | inactive | inactive | – |
| Cc1cc[n+](CCCN2c3ccccc3S(=O)(=O)c3cc(C(=O)O)ccc32)cc1 | inactive | inactive | – |
| CCN(CC)c1ccc2cc(-c3ccc(N)cc3)c(=O)oc2c1 | inactive | inactive | – |
| C[N+]1=C(/C=C/c2ccc(N)cc2)C(C)(C)c2ccccc21 | Active | Active | IC50 (A549 [3]): 3.9 µM |
| CC1=[N+](C)c2ccccc2C1(C)C | inactive | inactive | – |
| O=C(O)c1ccc(-c2oc3ccccc3c(=O)c2O)cc1 | inactive | inactive | – |
| O=Cc1ccc2c(c1)c1ccccc1n2CCCCl | inactive | inactive | – |
| CC1(C)CC(/C=C/c2ccc(N3CCNCC3)cc2)=CC(=C(C#N)C#N)C1 | Active | Active | IC50 (A549 [3]): 7.1 µM; Activity (A549 [4]): Active; Activity (A549 [5]): Non-Toxic; Activity (A549 [6]): Toxic; Activity (A549 [7]): Active; Activity (A549 [8]): Active; Activity (A549 [9]): Active; inhibition (A549 [10]): Active |
| O=C1OC(=O)c2ccc(N3CCCC3)c3cccc1c23 | inactive | inactive | – |
| C[N+]1=C(/C=C/c2ccc(N3CCCCC3)cc2)C(C)(C)c2ccccc21.[I-] | Active | Active | IC50 (A549 [3]): 1.1 µM; Activity (A549 [4]): Active; Activity (A549 [5]): Non-Toxic; Activity (A549 [6]): Non-Toxic; Activity (A549 [7]): Active; Activity (A549 [8]): Active; Activity (A549 [9]): Active; Activity (A549 [11]): Active; Activity (U-87 MG): Dose-dependent effect; Activity (A549 [12]): Active; inhibition (mTORC1 (Homo sapiens)): Active |
| C[N+]1=C(/C=C/c2ccc(N3CCNCC3)cc2)C(C)(C)c2ccccc21 | Active | Active | IC50 (A549 [3]): 13.6 µM |
